Laboratory results as given in patent US20190127805A1, “GENE SIGNATURES FOR CANCER DETECTION AND TREATMENT” (ALMAC DIAGNOSTICS LIMITED, priority 2016, published 2019).
Read-outs that look alike come from different tables or passages of the source.

Columns and labels:
ovarian cancer [1] = details: cited from earlier work
[2] = system: platinum resistant epithelial ovarian cancer; details: cited from earlier work
[3] = system: OVCAR3 isogenic cell lines co-cultured with ECFCs; test: In-vivo Matrigel plug angiogenesis assay (micro-vessel density); parameters: species or system Athymic nude mice; details: 5 mg/kg IP; OVCAR3 cisplatin-resistant vs cisplatin-naïve cells, p-value 0.0024 (FIG. 44)
Method: All animal experiments were performed in conformity to UK Home Office Regulations (PPL2729) and with authorization from Queen's University Belfast Animal Welfare and Ethical Review Body (AWERB). Eight week-old male Athymic nude mice (Harlan Laboratories) were used. ECFC were inoculated at a high density of 2.45×106 and co-cultured with GFP-labelled OVCAR3 WT or GFP-labelled OVCAR3-CP at a density of 1.4×106. The GFP-labelled OVCAR3 WT and GFP-labelled OVCAR3-CP were seeded alone at a density of 1.4×106. Each condition was diluted in 10 μL of phenol red-free DMEM and re-suspended in 90 μL of growth factor-reduced Matrigel (Corning) and injected subcutaneously. After 8 days, mice were sacrificed under isoflurane anaesthesia using 31 gauge needless intraperitoneal (IP) administration of sodium pentobarbital at 200 mg/kg, and implants were removed and fixed in 4% formaldehyde overnight. Fixed Matrigel implants were then embedded in paraffin and 10 μm sections were prepared for staining. For 5 mg/Kg bevacizumab was administered IP once weekly for 14 days. Treatment was commenced on day 3. Mice were sacrificed after a 14-day treatment period as previously described.
IHC and immunofluorescence studies were conducted as previously describe. […] CD31 and αSMA stained vessels were then counted per high power field (200×) in three separate fields of three independent tumors from each group. […]

ovarian cancer [4] = details: cited from earlier work; remark: listed apart in the source
[5] = system: platinum sensitive recurrent ovarian cancer; details: cited from earlier work

Substance: bevacizumab: recombinant humanised monoclonal antibody that binds to vascular endothelial growth factor A (VEGF-A)
- HR for PFS (ovarian cancer [1]; bevacizumab cycle 2-6, 95% CI 0.795 to 1.040, P=0.16): 0.908
- HR for PFS (ovarian cancer [1]; bevacizumab plus chemotherapy cycle 2-22, 95% CI 0.625 to 0.824, P<0.001): 0.717
- PFS (ovarian cancer [1]; bevacizumab plus standard chemotherapy cycle 2-22 (control 10.3 months)): 14.1 months
- PFS (ovarian cancer [1]; bevacizumab with standard chemotherapy cycle 2-6 (control 10.3 months)): 11.2 months
- objective response rate (ORR) ([2]; bevacizumab and chemotherapy): 30.9%
- overall survival ([2]; chemotherapy and bevacizumab arm (chemotherapy alone 13.3 months)): 16.6 months
- PFS ([2]; patients treated with bevacizumab and paclitaxel): 9.6 months
- Progression free survival ([2]; single agent chemotherapy and bevacizumab (chemotherapy alone 3.4 months)): 6.7 months
- hazard ratio for progression free survival ([2]; vs chemotherapy alone, 95% CI 0.32-0.53, p<0.001): 0.42
- HR for overall survival ([2]; vs chemotherapy alone, 95% CI 0.69-1.14, not statistically significant): 0.89
- MVD (micro-vessel density) [3]: less MVD
- progression free survival (PFS) (ovarian cancer [4]; standard therapy plus bevacizumab (standard therapy alone 20.3 months)): 21.8 months
- hazard ratio (HR) for PFS (ovarian cancer [4]; vs standard therapy, 95% CI 0.70 to 0.94, P=0.004): 0.81
- Median progression free survival ([5]; bevacizumab + gemcitabine and carboplatin (placebo+GC 8.4 months)): 12.4 months
- HR for progression free survival ([5]; vs placebo+GC, 95% CI 0.388-0.605, p<0.0001): 0.484
